The values that follow come from paper PMC3705364, “Biochemical and Electrophysiological Characterization of Two Sea Anemone Type 1 Potassium Toxins from a Geographically Distant Population of Bunodosoma caissarum” (Marine Drugs, 2013).

A word on the inhibition: it is the change of the read-out against control, counted positive when it falls. Usually IC50 stands for the concentration needed to halve the response being measured.

The target of one data set is hKV1.3 (Homo sapiens, UniProt P22001). The data set can be described thus: Two-electrode voltage-clamp, X. laevis oocytes expressing hKV1.3. It is filed as cell-based. More on the design: expressed in transfected cells; host or cells: Xenopus laevis oocytes injected with cRNA. The procedure:
(§1) Stage V–VI of X. laevis oocytes were harvested by partial ovariectomy under anesthesia (3-aminobenzoic acid ethyl ester methanesulfonate salt, 0.5 g/L from Sigma-Aldrich Co., Saint Louis, MO, USA). The oocytes were defolliculated for 2 h by treatment with 2 mg/mL collagenase (Sigma-Aldrich Co., Saint Louis, MO, USA) in Ca^2+ free ND96 solution (in mM: 96 NaCl; 2 KCl; 1 MgCl2; 5 HEPES adjusted pH 7.4). For the expression of KV channels (KV1.1–KV1.6, KV2.1, KV3.1, KV4.2, KV4.3, hERG and the insect channel Shaker IR), the linearized plasmids were transcribed using the T7 or SP6 mMessage-mMachine transcription kit (Ambion, Austin, TX, USA). Oocytes were injected with 50 nL of cRNA at a concentration of 1 ng/nL using a microinjector (Drummond Scientific, Broomall, PA, USA). The oocytes were maintained in a ND96 solution (in mM: 96 NaCl, 2 KCl, 1.8 CaCl2, 2 MgCl2 and 5 HEPES; adjusted pH 7.4), supplemented with 50 µg/mL gentamicin sulfate.
(§2) Two-electrode voltage-clamp recordings were performed at room temperature (18–22 °C) using a Geneclamp 500 amplifier (Molecular Devices, Sunnyvale, CA, USA) controlled by a pClamp data acquisition system (Axon Instruments, Union City, CA, USA). Whole-cell currents from oocytes were recorded from 1 to 3 days after injection. Bath solution was the same ND96 solution described above. Voltage and current electrodes were filled with 3 M KCl. Resistances of both electrodes were kept between 0.8 and 1.0 ΩM. The elicited currents were filtered at 500 Hz using a four-pole lowpass Bessel filter. Leak subtraction was performed using a −P/4 protocol. KV1.1–KV1.6 and Shaker IR currents were evoked by 500 ms depolarizations to 0 mV, followed by a 500 ms pulse to −50 mV, from a holding potential of −90 mV. Current traces of hERG channels were elicited by applying a +40 mV prepulse for 2 s, followed by a step to −120 mV for 2 s. KV3.1, KV 4.2 and KV4.3 currents were elicited by 500 ms pulses to +20 mV from a holding potential of −90 mV. To assess the concentration-response relationships, data were fitted with the Hill equation: y = 100/[1 + (EC50/[toxin])h] (1) where y is the amplitude of the toxin-induced effect, EC50 is the toxin concentration at half maximal efficacy, [toxin] is the toxin concentration and h is the Hill coefficient. In order to investigate the current-voltage relationship, current traces were evoked by 10 mV depolarization steps from a holding potential of −90 mV. […]
(§3) Comparison of two sample means was made using a paired Student’s t test (p < 0.05). […] All data were analyzed using Clampfit 10.3 (Molecular Devices, Sunnyvale, CA, USA) and Origin 7.5 software (Origin Lab., Northampton, MA, USA).

The test system of data set [1] is KV1.1–KV1.6, KV2.1, KV3.1, KV4.2, KV4.3, hERG and Shaker IR. The data set can be described thus: Electrophysiological screening on 12 cloned KV channel isoforms in X. laevis oocytes. It counts as cell-based, rat, human, insect. The procedure:
The pharmacological profile of BcsTx-1 and -2 were determined on a wide range of twelve KV channels (rKV1.1, rKV1.2, hKV1.3, rKV1.4, rKV1.5, rKV1.6, rKV2.1, rKV3.1, rKV4.2, rKV4.3, hERG and the insect channel Shaker IR; r: rat and h: human). Channels were expressed in X. laevis oocytes, and their currents were recorded by using two-electrode voltage-clamp technique. BcsTx1 (0.5 µM) inhibited rKv1.1, rKv1.2, rKv1.3, rKv1.6 and Shaker IR channels with 44% ± 2%, 100%, 100%, 88% ± 3% and 64% ± 4%, respectively (Figure 6). […] Type 1 toxins, such as BgK and ShK, have been extensively characterized. […] Some of the other type 1 toxins were indirectly assayed by competitive inhibition of the binding of ^125I-dendrotoxins, allowing the conclusion that they will show activity on KV1.1, KV1.2 and/or KV1.6, since dendrotoxins only block the current of these KV channels. […] Thus, it is worth mentioning that our work represents the first electrophysiological characterization of type 1 sea anemone toxin activity on cloned Shaker IR insect channel.
as §1
Two-electrode voltage-clamp recordings were performed at room temperature (18–22 °C) using a Geneclamp 500 amplifier (Molecular Devices, Sunnyvale, CA, USA) controlled by a pClamp data acquisition system (Axon Instruments, Union City, CA, USA). Whole-cell currents from oocytes were recorded from 1 to 3 days after injection. Bath solution was the same ND96 solution described above. Voltage and current electrodes were filled with 3 M KCl. Resistances of both electrodes were kept between 0.8 and 1.0 ΩM. The elicited currents were filtered at 500 Hz using a four-pole lowpass Bessel filter. Leak subtraction was performed using a −P/4 protocol. KV1.1–KV1.6 and Shaker IR currents were evoked by 500 ms depolarizations to 0 mV, followed by a 500 ms pulse to −50 mV, from a holding potential of −90 mV. Current traces of hERG channels were elicited by applying a +40 mV prepulse for 2 s, followed by a step to −120 mV for 2 s. KV3.1, KV 4.2 and KV4.3 currents were elicited by 500 ms pulses to +20 mV from a holding potential of −90 mV. To assess the concentration-response relationships, data were fitted with the Hill equation: y = 100/[1 + (EC50/[toxin])h] (1) where y is the amplitude of the toxin-induced effect, EC50 is the toxin concentration at half maximal efficacy, [toxin] is the toxin concentration and h is the Hill coefficient. In order to investigate the current-voltage relationship, current traces were evoked by 10 mV depolarization steps from a holding potential of −90 mV. The activation curves were fitted with a Boltzmann relationship of the form: 1/(1 + e^[−(V − V^1/2)/^S^]) (2) where V1/2 is the voltage for half-maximal activation and s is the slope factor. The activation kinetics were obtained by mono-exponential fits to the raw current traces.

The target in another data set is T1, rKV1.6 (Rattus norvegicus, UniProt P17659).
T1 construct: expressed in transfected cells; host or cells: Xenopus laevis oocytes injected with cRNA
T1 sequence (P17659 whole entry): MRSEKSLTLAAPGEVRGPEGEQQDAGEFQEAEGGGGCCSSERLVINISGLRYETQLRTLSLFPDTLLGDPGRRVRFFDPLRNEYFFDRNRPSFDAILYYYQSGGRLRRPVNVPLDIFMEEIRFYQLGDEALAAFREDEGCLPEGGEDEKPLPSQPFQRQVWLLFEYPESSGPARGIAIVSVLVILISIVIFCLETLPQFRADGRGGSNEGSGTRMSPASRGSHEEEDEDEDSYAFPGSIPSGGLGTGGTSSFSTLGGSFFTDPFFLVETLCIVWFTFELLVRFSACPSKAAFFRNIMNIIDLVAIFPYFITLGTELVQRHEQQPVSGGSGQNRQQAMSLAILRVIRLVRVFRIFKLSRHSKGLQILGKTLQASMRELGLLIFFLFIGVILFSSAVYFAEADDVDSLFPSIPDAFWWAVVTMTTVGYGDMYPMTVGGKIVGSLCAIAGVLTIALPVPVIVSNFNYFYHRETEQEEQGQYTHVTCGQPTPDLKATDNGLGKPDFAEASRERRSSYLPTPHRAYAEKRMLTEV
Nature of the data set: Two-electrode voltage-clamp, X. laevis oocytes expressing rKV1.6. It counts as cell-based. The note with it: mean ± standard error. The procedure: as §1, §2, §3

The target in a further data set is T2, rKV1.1 (Rattus norvegicus, UniProt P10499).
T2 construct: expressed in transfected cells; host or cells: Xenopus laevis oocytes injected with cRNA
T2 sequence (P10499 whole entry): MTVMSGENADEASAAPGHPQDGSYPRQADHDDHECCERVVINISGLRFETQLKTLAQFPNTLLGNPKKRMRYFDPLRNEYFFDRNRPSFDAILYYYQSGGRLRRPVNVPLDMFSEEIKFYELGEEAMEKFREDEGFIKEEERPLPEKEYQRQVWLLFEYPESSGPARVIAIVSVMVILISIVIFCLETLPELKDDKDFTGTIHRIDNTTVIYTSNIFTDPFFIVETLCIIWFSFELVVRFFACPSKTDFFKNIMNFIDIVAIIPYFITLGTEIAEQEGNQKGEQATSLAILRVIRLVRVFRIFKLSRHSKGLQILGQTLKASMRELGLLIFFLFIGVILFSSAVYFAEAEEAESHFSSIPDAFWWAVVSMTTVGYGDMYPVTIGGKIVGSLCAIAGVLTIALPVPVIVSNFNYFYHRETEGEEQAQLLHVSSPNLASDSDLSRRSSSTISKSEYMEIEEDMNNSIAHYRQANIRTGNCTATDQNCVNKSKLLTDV
The data set can be described thus: Two-electrode voltage-clamp, X. laevis oocytes expressing rKV1.1. It is filed as cell-based. The note with it: mean ± standard error. The procedure: as §1, §2, §3
(Two-electrode voltage clamp is typically applied to oocytes expressing channels or transporters.)

The target in a further data set is T3, rKV1.2 (Rattus norvegicus, UniProt P63142).
T3 construct: expressed in transfected cells; host or cells: Xenopus laevis oocytes injected with cRNA
T3 sequence (P63142 whole entry): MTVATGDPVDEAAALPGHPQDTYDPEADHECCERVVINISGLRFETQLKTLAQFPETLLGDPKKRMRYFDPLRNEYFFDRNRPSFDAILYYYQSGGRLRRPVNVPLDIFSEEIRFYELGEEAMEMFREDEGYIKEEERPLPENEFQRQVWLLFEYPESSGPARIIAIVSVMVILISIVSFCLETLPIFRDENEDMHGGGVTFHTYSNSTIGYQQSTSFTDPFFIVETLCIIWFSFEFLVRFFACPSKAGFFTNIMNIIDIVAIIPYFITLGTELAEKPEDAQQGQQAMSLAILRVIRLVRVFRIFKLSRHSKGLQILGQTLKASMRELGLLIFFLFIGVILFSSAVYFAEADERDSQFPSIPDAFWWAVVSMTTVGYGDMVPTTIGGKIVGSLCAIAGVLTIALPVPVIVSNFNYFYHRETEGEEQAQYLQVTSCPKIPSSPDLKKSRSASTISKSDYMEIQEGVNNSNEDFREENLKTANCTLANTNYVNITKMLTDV
Nature of the data set: Two-electrode voltage-clamp, X. laevis oocytes expressing rKV1.2. It is filed as cell-based. The procedure:
as §1, §2, §3

For a further data set, the target named is T4, Shaker IR (Drosophila melanogaster, UniProt P08510, DEL6-46).
T4 construct: expressed in transfected cells; host or cells: Xenopus laevis oocytes injected with cRNA
T4 sequence (P08510 with tags, fused parts or gaps DEL6-46): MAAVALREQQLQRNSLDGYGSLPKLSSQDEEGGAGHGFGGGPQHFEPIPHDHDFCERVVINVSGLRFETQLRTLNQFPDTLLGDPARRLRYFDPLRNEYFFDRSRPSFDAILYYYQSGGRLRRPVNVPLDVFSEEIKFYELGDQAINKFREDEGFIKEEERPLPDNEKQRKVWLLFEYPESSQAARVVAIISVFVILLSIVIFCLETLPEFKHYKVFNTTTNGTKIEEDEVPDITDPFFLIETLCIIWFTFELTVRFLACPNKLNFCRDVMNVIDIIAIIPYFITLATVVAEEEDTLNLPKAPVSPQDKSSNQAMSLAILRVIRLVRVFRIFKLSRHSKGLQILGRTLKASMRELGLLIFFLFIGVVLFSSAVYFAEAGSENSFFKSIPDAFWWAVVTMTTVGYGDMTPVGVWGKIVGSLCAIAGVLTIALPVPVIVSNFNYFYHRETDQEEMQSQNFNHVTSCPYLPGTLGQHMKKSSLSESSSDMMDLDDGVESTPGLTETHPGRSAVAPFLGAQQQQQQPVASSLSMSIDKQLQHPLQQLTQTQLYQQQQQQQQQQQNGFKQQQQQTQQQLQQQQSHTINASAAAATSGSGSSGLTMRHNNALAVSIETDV
Nature of the data set: Two-electrode voltage-clamp, X. laevis oocytes expressing Shaker IR. It is filed as cell-based, insect. The note with it: mean ± standard error. The procedure: as §1, §2, §3

In a further data set the test system is KV1.3 channels. Particulars: cited from earlier work. The procedure: (§4) The pharmacological profile of BcsTx-1 and -2 were determined on a wide range of twelve KV channels (rKV1.1, rKV1.2, hKV1.3, rKV1.4, rKV1.5, rKV1.6, rKV2.1, rKV3.1, rKV4.2, rKV4.3, hERG and the insect channel Shaker IR; r: rat and h: human). Channels were expressed in X. laevis oocytes, and their currents were recorded by using two-electrode voltage-clamp technique. BcsTx1 (0.5 µM) inh ...

A further data set deals with KV1.1-4 and KV1.6. The note with it: cited from earlier work. The procedure:
as §4

The subject of data set [2] is intermediate conductance K (Ca) channels. The note with it: cited from earlier work.
Another data set concerns KV3.2 channels. The note with it: cited from earlier work.
The test system of a further data set is KV1.6. Particulars: cited from earlier work. The source says:
In order to characterize the potency and selectivity profile, concentration-response curves were constructed for BcsTx1. […] A concentration-response curve was also constructed to determine the concentration at which BcsTx2 blocked half of the channels.

Setting [3] is: TEVC, 18–22 °C, ND96 pH 7.4, 500 ms depolarizations to 0 mV from −90 mV, Hill fit, mean ± standard error, n ≥ 3.
The mark [4] stands for this setting: TEVC, 18–22 °C, ND96 pH 7.4, 500 ms depolarizations to 0 mV from −90 mV, Hill fit, n ≥ 3.

Where a SMILES comes first, the peptide text is derived from it. Bridges are numbered along the chain shown (N, C = ends). Where no end group is shown, it is not given here.

Sequence of hKV1.3 (P22001 whole entry): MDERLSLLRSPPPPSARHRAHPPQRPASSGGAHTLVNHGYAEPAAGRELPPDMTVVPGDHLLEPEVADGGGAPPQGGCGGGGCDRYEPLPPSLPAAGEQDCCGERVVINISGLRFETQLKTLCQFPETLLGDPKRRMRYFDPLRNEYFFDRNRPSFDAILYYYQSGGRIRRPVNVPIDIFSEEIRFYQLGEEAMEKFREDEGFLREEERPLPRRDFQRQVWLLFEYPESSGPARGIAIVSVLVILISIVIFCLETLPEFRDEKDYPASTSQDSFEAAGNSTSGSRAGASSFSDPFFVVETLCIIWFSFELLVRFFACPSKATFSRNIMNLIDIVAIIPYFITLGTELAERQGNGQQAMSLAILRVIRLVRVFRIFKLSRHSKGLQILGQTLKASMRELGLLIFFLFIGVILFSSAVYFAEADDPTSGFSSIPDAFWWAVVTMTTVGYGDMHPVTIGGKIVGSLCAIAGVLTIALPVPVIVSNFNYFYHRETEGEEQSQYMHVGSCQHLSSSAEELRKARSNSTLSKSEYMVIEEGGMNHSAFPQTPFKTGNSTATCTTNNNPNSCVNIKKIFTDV

For the compound `CC[C@H](C)[C@@H]1NC(=O)[C@@H](NC(=O)[C@H](C)N)CSSC[C@@H](C(=O)N[C@@H](Cc2c[nH]cn2)C(=O)O)NC(=O)[C@H](CC(C)C)NC(=O)CNC(=O)[C@@H]2CSSC[C@@H]3NC(=O)[C@H](CO)NC(=O)CNC(=O)CNC(=O)[C@H](CCCCN)NC(=O)[C@H](CCCCN)NC(=O)[C@H](C(C)C)NC(=O)[C@H](Cc4c[nH]cn4)NC(=O)[C@H](CCCCN)NC(=O)[C@H](CSSC[C@H](NC(=O)[C@H](CC(N)=O)NC(=O)[C@H]([C@@H](C)CC)NC(=O)[C@H](CCCNC(=N)N)NC(=O)[C@H](Cc4ccc(O)cc4)NC(=O)[C@H](CCCCN)NC(=O)[C@H](CCC(N)=O)NC(=O)[C@H](CO)NC(=O)[C@H](CC(N)=O)NC(=O)[C@H](CCCCN)NC3=O)C(=O)N[C@@H](C)C(=O)N[C@@H](CCCCN)C(=O)N[C@@H]([C@@H](C)O)C(=O)N2)NC(=O)[C@H]([C@@H](C)O)NC(=O)CNC(=O)[C@H]([C@@H](C)O)NC(=O)[C@@H]2CCCN2C(=O)[C@H](Cc2ccccc2)NC(=O)[C@H](CCCNC(=N)N)NC(=O)[C@H](CC(=O)O)NC1=O` [BcsTx1] (H-ACIDRFPTGTCKHVKKGGSCKNSQKYRINCAKTCGLCH-OH; disulfide 2-37, 11-30, 20-34), the inhibition at 0.5 µM on hKV1.3 (0.5 µM, n ≥ 3, read-out: inhibition of KV1.3 current) turned out to be 100%; at rKV1.6 (0.5 µM, n ≥ 3, read-out: inhibition of rKV1.6 current), 88%; on rKV1.1 (0.5 µM, n ≥ 3, read-out: inhibition of rKV1.1 current), 44%; on rKV1.2 (0.5 µM, n ≥ 3, read-out: inhibition of rKV1.2 current), 100%; at Shaker IR (0.5 µM, n ≥ 3, read-out: inhibition of Shaker IR current), 64%. Moreover, the IC50 against hKV1.3 (setting [3]) turned out to be 74.1 ± 20.2 nM; at rKV1.6 (setting [4]), 1.31 ± 0.2 nM; against rKV1.1 (setting [4]), 405 ± 20.6 nM; at rKV1.2 (setting [3]) it was 0.03 ± 0.006 nM; on Shaker IR (setting [4]), 248 ± 96 nM. For the same compound, the “selectivity among KV channels (in words)” value in data set [1] (0.5 µM, 12 KV isoforms) was “selectively blocks KV1.x channels”. The “potency class on KV channels (in words)” value in [1] (summary of IC50 values, compared with BgK and type 2 toxins) is “within the nanomolar range”. Besides, in data set [1] (summary of the electrophysiological characterization), the “affinity/potency order among KV channels (in words)” value was “high affinity for rKv1.2 over rKv1.6, hKv1.3, Shaker IR and rKv1.1”.

As to “ShK: type 1 sea anemone toxin from Stichodactyla helianthus (Swiss-Prot P29187)”, in the data set on KV1.3 channels, the “block of KV1.3 (in words)” value was “block KV1.3 channels”. Further, the “block of KV1.1-4 and KV1.6 (in words)” value in the data set with KV1.1-4 and KV1.6 is “blocks KV1.1-4 and KV1.6”. For the same compound, in data set [2], the “block of intermediate conductance K (Ca) channels (in words)” value is reported as “block intermediate conductance K (Ca) channels”. In addition, the “activity against KV3.2 (in words)” value in the data set on KV3.2 channels is on record as “shows activity against KV3.2 channels”.

“MgTX: toxin from Centruroides margaritatus (TIINVKCTSPKQCLPPCKAQFGQSAGAKCMNGKCKCYPH; ends and bridges not checked; cysteine pairing not given here; UniProt P40755 1-39, looked up)”: in the data set with KV1.6, the IC50 is 5 nM and the “binding affinity to KV1.6 (in words)” value is listed as “binds with very high affinity to KV1.6”.
